Measurements published in patent US20220143003A1, “COMPOSITIONS AND METHODS TO TREAT NON-ALCOHOLIC FATTY LIVER DISEASES (NAFLD)” (Coherus Biosciences, Inc., priority 2018, published 2022).

Experiments:
Assay type in all cases: in vivo, male C57BL/6JRj mice
DIO-NASH mice [1] = test: 4 h fasted blood glucose; conditions: group mean
DIO-NASH mice [2] = test: 4 h fasted plasma insulin (MSD platform); conditions: for 4 h fasted plasma insulin / Delta 4 h fasted plasma insulin week 12 vs baseline: group mean
Experimental: (§1) For plasma biochemistry, tail blood was drawn directly through the capillary of a Microvette/Vacuette of the right dimension and anticoagulant and mixed by inversion 5 times. Blood was placed at 4° C. until centrifugation at 3000×g for 10 minutes at 4° C. The plasma supernatants were transferred to new tubes and immediately frozen on dry ice and stored at −80° C. until analysis.
(§2) Mouse insulin was measured in single determinations using the MSD platform (Meso Scale Diagnostics).
4 h fasted plasma insulin (pg/mL) at baseline. Values expressed as mean of n=12-14+SEM.
4 h fasted plasma insulin (pg/mL) at week 12. Values expressed as mean of n=12-14+SEM.
Delta 4 h fasted plasma insulin (pg/mL) week 12 vs baseline. Values expressed as mean of n=12-14+SEM.

DIO-NASH mice [3] = test: Oral glucose tolerance test (OGTT), week 7; conditions: 6 h fasted, oral glucose 2 g/kg, group mean
Experimental: Animals were fasted 6 hours prior to oral glucose administration (2 g/kg). At the various time points after glucose administration, blood samples were collected into heparinized glass capillary tubes and immediately suspended in glucose/lactate system solution buffer (EKF-diagnostics, Germany). Blood glucose (BG) was measured using a BIOSEN c-Line glucose meter (EKF-diagnostics, Germany) according to the manufacturer's instructions. After the last blood sample, the animals were returned to the normal feeding schedule. The order of the animals were randomized before the procedure and mice were dosed with compounds just after the −60 minutes blood sample.
Oral glucose tolerance test (OGTT) in week 7. Temporal course of blood glucose levels during 6 h fasted OGTT. Oral glucose bolus (2 g/kg) at t=0 min.
Area under the curve calculated from the temporal course from 0-180 min OGTT. Values expressed as mean of n=12-14+SEM.

DIO-NASH mice [4] = test: Intraperitoneal insulin tolerance test (IPITT), week 10; design: Area under the curve 0-180 min IPITT (blood glucose): unit not given here; conditions: for Area under the curve 0-180 min IPITT (blood glucose): week 10, 6 h fasted, i.p. insulin 0.5 U/kg, group mean
Experimental: Mice were fasted 6 hours prior to intraperitoneal insulin administration (0.5 Unit/kg, rapid acting insulin NovoRapid). At the various time points after insulin administration, blood samples were collected into heparinized glass capillary tubes and immediately suspended in glucose/lactate system solution buffer (EKF-diagnostics, Germany). Blood glucose (BG) was measured using a BIOSEN c-Line glucose meter (EKF-diagnostics, Germany) according to the manufacturer's instructions. After the last blood sample, the animals were returned to the normal feeding schedule. The order of the animals was randomized before the procedure and mice were dosed with compounds just after the −60 minutes blood sample.
Intraperitoneal insulin tolerance test (IPITT) in week 10. Left: Temporal course of blood glucose levels during 6 h fasted IPITT. Intraperitoneal insulin bolus (0.5 U/kg) at t=0 min.
Area under the curve calculated from the temporal course from 0-180 min PITT Values expressed as mean of n=12-14+SEM.

DIO-NASH mice [5] = test: Plasma triglycerides (TG) at termination; conditions: group mean
Experimental: as §1, §2
Plasma triglycerides (TG) at termination (mmol/L). Values expressed as mean of n=12-14+SEM.

DIO-NASH mice [6] = test: Absolute and relative liver weight at termination; conditions: for Absolute liver weight at termination / Liver weight at termination, relative (% of body weight): group mean
Experimental: Animals were terminated after 12 weeks of treatment in a non-fasting state. Animals were put under isoflurane anesthesia, the abdominal cavity was opened, and cardiac blood was drawn directly into a Vacuette of the right dimension and anticoagulant and mixed by inversion 5 times. Blood was placed at 4° C. until centrifugation at 3000×g for 10 minutes at 4° C. The plasma supernatants were transferred to new tubes and immediately frozen on dry ice and stored at −80° C. Upon necropsy, the whole liver was collected and weighed. The liver was sampled for histological and biochemical analyses as described below.
Absolute liver weight at termination (g). Values expressed as mean of n=12-14+SEM.
Liver weight at termination in relative (% of body weight) values. Values expressed as mean of n=12-14+SEM.

DIO-NASH mice [7] = test: Liver α-SMA IHC quantified by morphometry; conditions: for Relative terminal liver α-SMA by morphometry / Total terminal α-SMA (% fractional area multiplied with liver weight): group mean
Experimental: Protein markers of fibrosis (Col1a1), fibrogenesis (α-SMA) and inflammation (Gal-3) were assessed by immunohistochemistry. α-SMA and collagen type I increase in regulation of quiescent hepatic stellate cell activation into myofibroblast-like cells where activated hepatic stellate cells are the main collagen producing cells in the liver (Carpino et al 2005, Hou and Syn 2018) whereas Gal-3 is involved in mediating inflammatory response and considered as a macrophage activation marker (Sciacchitano et al, 2018). For morphometric quantification of liver Col1a1 (using antibody from Southern Biotech, Cat. #1310-01), alpha-smooth muscle actin (α-SMA; using antibody from Abcam, Cat. #Ab124964) and Galectin-3 (using antibody from Biolegend, Cat. #125402), IHC staining was performed using standard procedures. Briefly, after antigen retrieval and blocking of endogenous peroxidase activity, slides were incubated with primary antibody. For all IHC stains, the primary antibody was detected using a polymeric HRP-linker antibody conjugate and visualized using DAB as chromogen. Finally, sections were counterstained in hematoxylin and cover-slipped before scanning.
Quantitative assessment of immunoreactivity is evaluated as follows. IHC-positive staining is quantified by image analysis using the Visiomorph software (Visiopharm, Denmark). Visiomorph protocols are designed to analyze the virtual slides in two steps: 1. Crude detection of tissue at low magnification (1× objective). The liver capsule is excluded. 2. Detection of IHC-positive staining (e.g. green; collagen 1 IHC), tissue (e.g. red) and fat (e.g. pink) at high magnification (10×objective). The quantitative estimate of IHC-positive staining is calculated as an area fraction (AF) according to the following formula:
Terminal liver α-SMA was quantified by morphometry. Relative terminal liver α-SMA (% fractional area) is expressed as mean of n=12-14+SEM.
Total terminal α-SMA values are in milligrams (% fractional area multiplied with liver weight) and expressed as mean of n=12-14+SEM.

[8] = at baseline, CHS-131 High dose (alone or combined)
[9] = week 12, CHS-131 High dose (alone or combined)
[10] = CHS-131 High dose (alone or combined)
[11] = DIO-NASH mice, 12 weeks of treatment, summary of data

## CSc1ccc(C(=O)/C=C/c2cc(C)c(OC(C)(C)C(=O)O)c(C)c2)cc1 [Elafibranor, reference compound]
DIO-NASH mice [1]; [8]
  4 h fasted blood glucose: 7.68 mmol/L
DIO-NASH mice [1]; [9]
  4 h fasted blood glucose: 6.41 mmol/L
DIO-NASH mice [1]; [10]
  Delta 4 h fasted blood glucose week 12 vs baseline: -1.27 mmol/L
DIO-NASH mice [2]; [8]
  4 h fasted plasma insulin: 644 pg/mL
DIO-NASH mice [2]; [9]
  4 h fasted plasma insulin: 297 pg/mL
DIO-NASH mice [2]; [10]
  Delta 4 h fasted plasma insulin week 12 vs baseline: -347 pg/mL
DIO-NASH mice [3]; [10]
  Area under the curve 0-180 min OGTT (blood glucose): 1.35e+03
DIO-NASH mice [4]; [10]
  Area under the curve 0-180 min IPITT (blood glucose): 757
DIO-NASH mice [5]; [10]
  Plasma triglycerides (TG) at termination: 0.525 mmol/L
DIO-NASH mice [6]; [10]
  Absolute liver weight at termination: 4.2 g
  Liver weight at termination, relative (% of body weight): 13.1 % of body weight
DIO-NASH mice [7]; [10]
  Relative terminal liver α-SMA by morphometry: 2.56 % fractional area
  Total terminal α-SMA (% fractional area multiplied with liver weight): 114 milligrams

## O=S(=O)(Nc1cc(Cl)c(Oc2cnc3ccccc3c2)c(Cl)c1)c1ccc(Cl)cc1Cl [CHS-131]
DIO-NASH mice [1]; [8]
  4 h fasted blood glucose: 7.68 mmol/L
DIO-NASH mice [1]; at baseline, CHS-131 Low dose
  4 h fasted blood glucose: 8.09 mmol/L
DIO-NASH mice [1]; [9]
  4 h fasted blood glucose: 7.01 mmol/L
DIO-NASH mice [1]; week 12, CHS-131 Low dose
  4 h fasted blood glucose: 7.31 mmol/L
DIO-NASH mice [1]; [10]
  Delta 4 h fasted blood glucose week 12 vs baseline: -0.675 mmol/L
DIO-NASH mice [1]; CHS-131 Low dose
  Delta 4 h fasted blood glucose week 12 vs baseline: -0.787 mmol/L
DIO-NASH mice [2]; [11]
  Plasma insulin, effect in words: reduced
DIO-NASH mice [2]; DIO-NASH mice, compared to DIO mice administered vehicle only, significant, dose response manner
  Decrease of fasting plasma insulin: 50%
DIO-NASH mice [2]; [8]
  4 h fasted plasma insulin: 816 pg/mL
DIO-NASH mice [2]; at baseline, CHS-131 Low dose
  4 h fasted plasma insulin: 703 pg/mL
DIO-NASH mice [2]; [9]
  4 h fasted plasma insulin: 402 pg/mL
DIO-NASH mice [2]; week 12, CHS-131 Low dose
  4 h fasted plasma insulin: 485 pg/mL
DIO-NASH mice [2]; [10]
  Delta 4 h fasted plasma insulin week 12 vs baseline: -414 pg/mL
DIO-NASH mice [2]; CHS-131 Low dose
  Delta 4 h fasted plasma insulin week 12 vs baseline: -219 pg/mL
DIO-NASH mice [3]; [10]
  Area under the curve 0-180 min OGTT (blood glucose): 1.66e+03
DIO-NASH mice [3]; CHS-131 Low dose
  Area under the curve 0-180 min OGTT (blood glucose): 1.53e+03
DIO-NASH mice [4]; [11]
  Insulin sensitization, effect in words: significant improvement
DIO-NASH mice [4]; DIO-NASH mice, compared to DIO mice administered vehicle only, significant, not in a dose response manner
  Decrease of insulin resistance: 15%
DIO-NASH mice [4]; [10]
  Area under the curve 0-180 min IPITT (blood glucose): 767
DIO-NASH mice [4]; CHS-131 Low dose
  Area under the curve 0-180 min IPITT (blood glucose): 758
DIO-NASH mice [5]; [10]
  Plasma triglycerides (TG) at termination: 0.651 mmol/L
DIO-NASH mice [5]; CHS-131 Low dose
  Plasma triglycerides (TG) at termination: 0.715 mmol/L
DIO-NASH mice [6]; DIO-NASH mice, compared to DIO mice administered vehicle only
  Relative liver weight, effect in words: No difference
DIO-NASH mice [6]; [10]
  Absolute liver weight at termination: 3.14 g
  Liver weight at termination, relative (% of body weight): 8.15 % of body weight
DIO-NASH mice [6]; CHS-131 Low dose
  Absolute liver weight at termination: 3.21 g
  Liver weight at termination, relative (% of body weight): 8.4 % of body weight
DIO-NASH mice [7]; [11]
  Marker of fibrosis α-SMA, effect in words: positive trends for improvement
DIO-NASH mice [7]; DIO-NASH mice, compared to vehicle alone, trend
  Decrease of terminal α-SMA (marker of fibrosis): 15%
DIO-NASH mice [7]; [10]
  Relative terminal liver α-SMA by morphometry: 3.07 % fractional area
  Total terminal α-SMA (% fractional area multiplied with liver weight): 102 milligrams
DIO-NASH mice [7]; CHS-131 Low dose
  Relative terminal liver α-SMA by morphometry: 3.49 % fractional area
  Total terminal α-SMA (% fractional area multiplied with liver weight): 110 milligrams

## OC[C@H]1O[C@@H](c2ccc(Cl)c(Cc3ccc(O[C@H]4CCOC4)cc3)c2)[C@H](O)[C@@H](O)[C@@H]1O [Empagliflozin, reference compound]
DIO-NASH mice [1]; [8]
  4 h fasted blood glucose: 7.71 mmol/L
DIO-NASH mice [1]; [9]
  4 h fasted blood glucose: 6.69 mmol/L
DIO-NASH mice [1]; [10]
  Delta 4 h fasted blood glucose week 12 vs baseline: -1.03 mmol/L
DIO-NASH mice [2]; [8]
  4 h fasted plasma insulin: 743 pg/mL
DIO-NASH mice [2]; [9]
  4 h fasted plasma insulin: 673 pg/mL
DIO-NASH mice [2]; [10]
  Delta 4 h fasted plasma insulin week 12 vs baseline: -69.9 pg/mL
DIO-NASH mice [3]; [10]
  Area under the curve 0-180 min OGTT (blood glucose): 1.31e+03
DIO-NASH mice [4]; [10]
  Area under the curve 0-180 min IPITT (blood glucose): 723
DIO-NASH mice [5]; [10]
  Plasma triglycerides (TG) at termination: 0.738 mmol/L
DIO-NASH mice [6]; [10]
  Absolute liver weight at termination: 3.37 g
  Liver weight at termination, relative (% of body weight): 8.48 % of body weight
DIO-NASH mice [7]; DIO-NASH mice, 12 weeks of treatment, summary of data, markers not given
  Markers of fibrosis, effect in words: significant reduction
DIO-NASH mice [7]; [10]
  Relative terminal liver α-SMA by morphometry: 3.8 % fractional area
  Total terminal α-SMA (% fractional area multiplied with liver weight): 130 milligrams
